Data taken from patent publication US11325937B2, “Glycoside compound and preparation method therefor, composition, application, and intermediate” (SHANGHAI HUTCHISON PHARMACEUTICALS LIMITED, priority 2018, dated 2022).

Experiments:
[1] = system: HUVEC-12 endothelial cells; experiment: Proliferation of HUVEC-12 endothelial cells (MTT); format: cell-based, Human; details: HUVEC-12 treated with supernatant of macrophages co-incubated 24 h with compound, 10 μM (s- groups)
Description: The experiment included seven groups. In Group 1, HUVEC-12 endothelial cells (purchased from Shanghai RongChuang Biotech Co., Ltd.) were treated directly with simple DMEM medium (Gibcol, Shanghai) containing 10% FBS ([…], Germany) (control). In Group 2, the endothelial cells were treated with the supernatant obtained 24 h after macrophages were cultured with DMEM medium containing 10% FBS (s-control). […] In Group 5, the endothelial cells cultured with DMEM medium containing 10% FBS were treated directly with Cpd-18 (Salvianolate) (cpd-18, 10 μM). In Group 6, the endothelial cells were treated with the supernatant obtained after macrophages cultured with DMEM medium containing 10% FBS were treated and co-incubated with Cpd-18 (Salvianolate, 10 μM) for 24 h (s-cpd18). In Group 7, the endothelial cells cultured with DMEM medium containing 10% FBS were treated directly with VEGFD (Recombinant Human VEGF165, 10 ng/mL). Human umbilical vein endothelial cells HUVEC-12 in logarithmic growth phase were counted, adjusted to a cell density of 2.5×10^4 cells/mL, and inoculated in 100 μL per well in a 96-well plate. […] Based on the measured absorbance (OD), the HUVEC-12 endothelial cells treated directly with simple DMEM medium (control) were used as a blank control (Group 1), the percentage of cell proliferation in each group was calculated, and compared. […]

[2] = system: VEGF-A mRNA expression in macrophages (RAW264.7); experiment: In vitro macrophage experiment: activity of compounds to promote VEGF-A mRNA expression (RT-qPCR); format: cell-based; details: Mus musculus, RAW264.7 macrophages, 3 h, relative expression, no drug = 1, read-out: Expression level of VEGF-A mRNA; for fold induction at 500 µM: 0.5 mM; for fold induction at 1000 µM: 1 mM; for fold induction at 2000 µM: 2 mM; for fold induction at 3000 µM: 3 mM; for fold induction at 4000 µM: 4 mM
Outline: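 RAW264.7 macrophages were exposed to test compounds at various concentrations for 3 h at 37° C. VEGF-A mRNA was measured by SYBR Green RT-qPCR, normalized to β-Actin, and expressed as 2^−ΔΔCt relative to untreated cells (=1). Activity is the maximal fold induction, with ≥4 as hit criterion.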

Row | Structure (SMILES) | promotion of proliferation of endothelial cells (in words) [1] | fold induction at 500 µM [2] | fold induction at 1000 µM [2] | fold induction at 2000 µM [2] | fold induction at 3000 µM [2] | fold induction at 4000 µM [2]
1 | COc1ccc(CCCCO[C@@H]2O[C@H](CO)[C@@H](O)[C@H](O)[C@H]2O)cc1 [TG-028] | more potent promotion on the proliferation of endothelial cells than the direct treatment of endothelial cells with VEGF | 0.79 | 0.39 | 6.77 | 13.4 | 4.23
2 | OC[C@H]1O[C@@H](OCCc2ccccc2)[C@H](O)[C@@H](O)[C@@H]1O [TG-055] |  | 6.36 | 2.11 | 4.44 | 3.81 | 6.11
